Assay results: publication PMC5069690, “Hepatic 3D spheroid models for the detection and study of compounds with cholestatic liability” (Scientific Reports, 2016)
pEC50, pIC50: −log10 of the molar value. Several values for one entry are separate records, joined by “and”; a condition that tells them apart may be missing. Equal values may be shown once. Read-outs that look alike come from different tables or passages of the source.

Experiments:
BSEP = conditions: quoted in the discussion, no reference given; read-out: BSEP inhibition IC50; cited from earlier work
HepaRG spheroids [1] = experiment: Repeated-exposure toxicity in HepaRG spheroids with or without BA mixture, cellular ATP content; assay type: cell-based, human; conditions: for Cholestatic Index (EC50 (+BA) / EC50 (-BA)) / CC50: ATP, one value per independent experiment; for CC50: Homo sapiens, HepaRG, compound alone, read-out: Without BA EC50
Procedure: Cryopreserved differentiated HepaRG cells (Biopredic International, France) were thawed according to the supplier’s instructions. The cells were seeded in Williams’ medium E with GlutaMAX^TM containing the thaw, seed and general purpose additive (ADD670; Biopredic International). The cells were seeded at a density of 2,000 viable cells per well in ULA plates. From day 5, the spheroids were maintained in medium containing 0.5% DMSO, the serum-free induction additive (ADD650, Biopredic International), 20 ng/ml epidermal growth factor and 10 ng/ml hepatocyte growth factor (HumaXpress, Nordic BioSite, Sweden).
(§1) Toxicity studies were started at day 8 and day 5 for PHH and HepaRG spheroids, respectively.

PHH spheroids [2] = experiment: Bile acid accumulation (fluorescent taurocholic acid derivative, confocal microscopy) in PHH spheroids; assay type: cell-based, human; conditions: repeated exposure for 8 days
Procedure: (§2) BA accumulation was assessed with a fluorescently labelled taurocholic acid derivative, tauro-nor-THCA-25-DBD (Genomembrane Company, Ltd, Japan). After 6 days of chlorpromazine exposure, the spheroids were co-exposed to chlorpromazine and 20 μM tauro-nor-THCA-25-DBD for an additional 2 days. Fluorescence was assessed by confocal microscopy (Zeiss LSM 710).

[3] = tested on: multi-donor PHH spheroids; experiment: Repeated-exposure toxicity in multi-donor PHH spheroids with or without BA mixture, albumin secretion; assay type: cell-based, human; conditions: for pEC50: Homo sapiens, 336 h, multi-donor PHH spheroids (10 donors), 14 days repeated exposure, albumin secretion
Procedure: The cells were seeded in PHH medium (Williams’ medium E containing 100 units/ml penicillin, 100 μg/ml streptomycin, 2 mM L-glutamine, 10 μg/ml insulin, 5.5 μg/ml transferrin, 6.7 ng/ml sodium selenite, 100 nM dexamethasone) supplemented with 10% fetal bovine serum. […] When PHH had reassembled into compact aggregates (day 4–6 after seeding), spheroids were shifted to serum-free PHH medium. […] The spheroids were maintained in serum-free PHH medium.
as §1

HepaRG spheroids [4] = experiment: Bile acid accumulation (fluorescent taurocholic acid derivative, confocal microscopy) in HepaRG spheroids; assay type: cell-based, human
Procedure: as §2

[5] = tested on: F-actin cytoskeleton in PHH spheroids; experiment: F-actin cytoskeleton integrity (Phalloidin staining) in PHH spheroids; assay type: cell-based, human; conditions: 8 days
Procedure: (§3) Spheroids were fixed in 4% paraformaldehyde at 4 °C O/N. Immunohistochemistry was performed on cryosections (8 μm) for BSEP (Atlas, Sweden) and MRP2 (Abcam, UK). […] F-actin was visualized using Alexa Fluor 488 Phalloidin. Slides were mounted with ProLong Gold Antifade Mountant with DAPI and fluorescence was assessed by confocal microscopy (Zeiss LSM 710). Surface expression of the BA transporters was quantified using CellProfiler software.

PHH spheroids [6] = experiment: Toxicity in PHH spheroids with or without BA mixture, albumin secretion read-out (Supplementary Fig. S2); conditions: 8 days, Supplementary Fig. S2B
Procedure: (§5) Stock solutions of the compounds were diluted in culture medium to a maximal final DMSO concentration of 0.3% for PHH spheroids and 0.6% for HepaRG spheroids. Toxicity studies were started at day 8 and day 5 for PHH and HepaRG spheroids, respectively. Spheroids were treated every other day with the compounds in the presence or absence of the BA mixture. Cellular ATP content was determined as a marker of cell viability using the CellTiter-Glo Luminescent Cell Viability Assay (Promega, Sweden). When indicated, albumin concentrations were determined by ELISA (Bethyl laboratories, USA).
(§6) To evaluate the cholestatic risk of the tested compounds we introduced the cholestatic index (CIx). The CIx is defined as the ratio between the EC50-value from co-exposure to a compound and the BA mixture and the EC50-value from exposure to the compound alone.

[7] = tested on: ABCB11, SRXN1, NFE2L2, DR5 expression in PHH spheroids; experiment: RT-qPCR gene expression in PHH spheroids; assay type: cell-based, human; conditions: 8 days
Procedure: (§4) Total RNA was extracted using Qiazol according to the manufacturer’s protocol. RNA was reverse-transcribed into cDNA with SuperScript III reverse transcriptase. RT-qPCR analysis was performed with a 7500 Fast Real-Time PCR system using a TaqMan Universal or SYBR Green mix.

PHH spheroids [8] = experiment: Repeated-exposure toxicity in PHH spheroids with or without BA mixture, cellular ATP content; conditions: for CC50: Homo sapiens; for CC50 / Cholestatic Index (EC50 (+BA) / EC50 (-BA)): one value per independent experiment; for Cholestatic Index (EC50 (+BA) / EC50 (-BA)): ATP;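 on all read-outs here: primary human hepatocyte spheroids dosed every second day with compound, with or without a bile acid mixture, viability read as cellular ATP by luminescence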
Procedure: Cryopreserved PHH (Bioreclamation IVT, USA) were thawed according to the supplier’s instructions. The cells were seeded in PHH medium (Williams’ medium E containing 100 units/ml penicillin, 100 μg/ml streptomycin, 2 mM L-glutamine, 10 μg/ml insulin, 5.5 μg/ml transferrin, 6.7 ng/ml sodium selenite, 100 nM dexamethasone) supplemented with 10% fetal bovine serum. The cells were seeded at a density of 1,500 viable cells per well in ultra-low attachment (ULA) plates (Corning). When PHH had reassembled into compact aggregates (day 4–6 after seeding), spheroids were shifted to serum-free PHH medium. […] The hepatocytes were derived from 5 male and 5 female donors and were aggregated into 3D microtissues in GravityPLUS™ hanging drop plates and cultivated and assayed in GravityTRAP™ plates. The spheroids were maintained in serum-free PHH medium.
as §5, §6

[9] = tested on: F-actin cytoskeleton in HepaRG spheroids; experiment: F-actin cytoskeleton integrity (Phalloidin staining) in HepaRG spheroids; assay type: cell-based, human; conditions: 8 days
Procedure: as §3

[10] = tested on: ABCB11, SRXN1, NFE2L2, DR5 expression in HepaRG spheroids; experiment: RT-qPCR gene expression in HepaRG spheroids; assay type: cell-based, human; conditions: 8 days
Procedure: as §4

[11] = co-exposure with non-toxic BA mixture compared to compound or BAs alone

CN(C)CCCN1c2ccccc2Sc2ccc(Cl)cc21 [Chlorpromazine, chlorpromazine]
pIC50 (BSEP): 3.83 | Cholestatic risk classification based on CIx (HepaRG spheroids [1]; 8 days): low cholestatic risk (Compounds with a CIx ≥ 0.80) | CIx (mean of the independent experiments) (HepaRG spheroids [1]; 8 days co-exposure with BAs vs compound alone): 0.87 ± 0.06 | Cholestatic Index (EC50 (+BA) / EC50 (-BA)) (HepaRG spheroids [1]; 8 days): 0.88 and 0.81 and 0.93 | Cholestatic risk classification based on CIx (HepaRG spheroids [1]; 14 days): cholestatic risk (compounds with a CIx ≤ 0.80 were considered to have cholestatic risk) | CIx (mean of the independent experiments) (HepaRG spheroids [1]; 14 days of repeated exposure): 0.66 ± 0.03 | Cholestatic Index (EC50 (+BA) / EC50 (-BA)) (HepaRG spheroids [1]; 14 days): 0.63 and 0.65 and 0.69 | CC50 (HepaRG spheroids [1]; 192 h, 8 days repeated exposure): 17 µM | CC50 (HepaRG spheroids [1]; 336 h, 14 days repeated exposure): 14 µM | intracellular BA accumulation (tauro-nor-THCA-24-DBD) (PHH spheroids [2]): cytoplasmic accumulation | pEC50 ([3]; co-exposure with BA mixture, read-out: With BA EC50): 5.77 | pEC50 ([3]; compound alone, read-out: Without BA EC50): 5.35 | Cholestatic Index (EC50 (+BA) / EC50 (-BA)) ([3]; both, human, 14 days): 0.38 | toxicity to the spheroids (HepaRG spheroids [4]; 10 μM, 8 days): toxic | intracellular BA accumulation (tauro-nor-THCA-24-DBD) (HepaRG spheroids [4]; repeated exposure for 8 days): cytoplasmic accumulation | F-actin expression and integrity [5]: reduced F-actin expression and disrupted its integrity | CIx (PHH spheroids [6]): 0.69 | DR5 expression [7, 11]: significantly induced DR5 | NFE2L2 expression [7, 11]: significantly further increased NFE2L2 expression | SRXN1 expression [7, 11]: significant induction of SRXN1 | expression of ABCB11, encoding BSEP ([7]; normalized to GAPDH): inhibited the expression of ABCB11 | DR5 expression ([7]; toxic concentration alone (80x BA; 12.5 µM CPZ), Supplementary Fig. S3): no change in DR5 expression | CC50 (PHH spheroids [8]; 192 h, read-out: Without BA EC50, PHH spheroids, 8 days repeated exposure, compound alone, ATP): 14 µM | CC50 (PHH spheroids [8]; 336 h, read-out: Without BA EC50, PHH spheroids, 14 days repeated exposure, compound alone, ATP): 12 µM | Cholestatic risk classification based on CIx (PHH spheroids [8]; PHH spheroids, 8 days): low cholestatic risk (Compounds with a CIx ≥ 0.80) | CIx (mean of the independent experiments) (PHH spheroids [8]; PHH spheroids, 8 days co-exposure with BAs vs compound alone): 0.90 ± 0.12 | Cholestatic Index (EC50 (+BA) / EC50 (-BA)) (PHH spheroids [8]; PHH spheroids, 8 days): 0.85 and 1.07 and 0.83 | CIx (PHH spheroids [8]; PHH spheroids, 8 days, cellular ATP content read-out, Supplementary Fig. S2A): 0.75 | Cholestatic risk classification based on CIx (PHH spheroids [8]; PHH spheroids, 14 days): cholestatic risk (compounds with a CIx ≤ 0.80 were considered to have cholestatic risk) | Cholestatic Index (EC50 (+BA) / EC50 (-BA)) (PHH spheroids [8]; PHH spheroids, 14 days): 0.80 and 0.71 and 0.77 | F-actin expression and integrity [9]: reduced F-actin expression and disrupted its integrity | DR5 expression [10, 11]: significantly induced DR5 | NFE2L2 expression [10, 11]: significantly further increased NFE2L2 expression | SRXN1 expression [10, 11]: significant induction of SRXN1 | expression of ABCB11, encoding BSEP ([10]; normalized to GAPDH): inhibited the expression of ABCB11
